This is an account of results in the supplement of paper PMC11208160.

The data set is described as follows: recombinant UMI read abundance after kanamycin selection (control-corrected) (log10(CPM+1)); higher = more efficient recombination; extreme values may be limits of the assay; sequences stand for … in AGTGCAGAGAAAATCGGCCAGTTTTCTCTGCCTGCAGTCCGCATGCCGTGGGACCCCTTGGGTTCTAACCTGTTGCCTAGATTTATGCAGCGGACTGCCTTTCTCCCAAAGTGATAAACCGG…AGGTTGGTTTCACT; site = the 11-nt donor. The method in brief:
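Values, expressed as log10(CPM+1), derive from recombinant UMI counts converted to CPM, averaged across replicates and scaled by control-derived factors. Plating was with IPTG (0.07 mM) plus kanamycin or unselected, two replicates each. The screen pooled donor and donor-binding-loop pairs for the IS621 bridge recombinase in Escherichia coli.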
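Further: IS621 bridge recombinase in Escherichia coli cells against a fixed T5 target plasmid.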

As to “TAGTGAGCATGGACCGGTTTTCCCGGTAATCCGTATTTGGG (site TACTGAGCTCC)”, the “recombinant UMI read abundance (log10)” value amounted to 0. Then “TAGTGAGCATGGACCGGTTTTCCCGGTAATCCGTATTTGGG (site TAGTGAGCTCC)”, with 0.0293; and “TAGTGAGCATGGACCGGTTTTCCCGGTAATCCGTATTTGGG (site TATTGAGCTCC)”, with 0. For “TAGTGGACATGGACCGGTTTTCCCGGTAATCCGTATTTGTT (site TAGTGGACTAA)” the value was 1.38; for “TAGTGTACATGGACCGGTTTTCCCGGTAATCCGTATTTGAT (site TAGTGTACTAT)”, 0.856. Then “TATAAAGCATGGACCGGTTTTCCCGGTAATCCGTATTTGGA (site TATAAAGCTTC)”, with 0.646. “TATAATACATGGACCGGTTTTCCCGGTAATCCGTATTTGCA (site TAAAATACTTG)”: the “recombinant UMI read abundance (log10)” value is 1.04. Then “TATAATACATGGACCGGTTTTCCCGGTAATCCGTATTTGCA (site TACAATACTTG)”, with 0.35; and “TATAATACATGGACCGGTTTTCCCGGTAATCCGTATTTGCA (site TAGAATACTTG)”, with 2.6; and “TATAATACATGGACCGGTTTTCCCGGTAATCCGTATTTGCA (site TATAATACTTG)”, with 0.242. For “TATACTGCATGGACCGGTTTTCCCGGTAATCCGTATTTGCT (site TATACTGCTAG)” the value was 1.63. For “TATAGCGCATGGACCGGTTTTCCCGGTAATCCGTATTTGTC (site TATAGCGCTGA)”, the “recombinant UMI read abundance (log10)” value was found to be 2.62. Then “TATAGTCCATGGACCGGTTTTCCCGGTAATCCGTATTTGTA (site TAAAGTCCTTA)”, with 0.605; and “TATAGTCCATGGACCGGTTTTCCCGGTAATCCGTATTTGTA (site TACAGTCCTTA)”, with 0.121; and “TATAGTCCATGGACCGGTTTTCCCGGTAATCCGTATTTGTA (site TAGAGTCCTTA)”, with 0.0216.

Regarding “TATAGTCCATGGACCGGTTTTCCCGGTAATCCGTATTTGTA (site TATAGTCCTTA)”, the “recombinant UMI read abundance (log10)” value was 0.432. Then “TATCAAACATGGACCGGTTTTCCCGGTAATCCGTATTTGGC (site TATCAAACTGC)”, with 0; and “TATCACACATGGACCGGTTTTCCCGGTAATCCGTATTTGTC (site TATCACACTGA)”, with 1.5. For “TATCAGCCATGGACCGGTTTTCCCGGTAATCCGTATTTGTT (site TATCAGCCTAA)” the value was 0.0212; for “TATCCATCATGGACCGGTTTTCCCGGTAATCCGTATTTGCG (site TATCCATCTCG)”, 0.52; for “TATCGAGCATGGACCGGTTTTCCCGGTAATCCGTATTTGTC (site TATCGAGCTGA)”, 2.55. For “TATCGTCCATGGACCGGTTTTCCCGGTAATCCGTATTTGCG (site TATCGTCCTCG)” the value was 0.0127.

As for “TATCTCACATGGACCGGTTTTCCCGGTAATCCGTATTTGTC (site TATCTCACTGA)”, the “recombinant UMI read abundance (log10)” value is 1.44. For “TATCTTCCATGGACCGGTTTTCCCGGTAATCCGTATTTGGT (site TATCTTCCTAC)” the value was 0.00632; for “TATGCGACATGGACCGGTTTTCCCGGTAATCCGTATTTGCT (site TATGCGACTAG)”, 1.27; for “TATGCTGCATGGACCGGTTTTCCCGGTAATCCGTATTTGGA (site TATGCTGCTTC)”, 0.0199. For “TATGGACCATGGACCGGTTTTCCCGGTAATCCGTATTTGCA (site TATGGACCTTG)” the value was 0; for “TATGGGTCATGGACCGGTTTTCCCGGTAATCCGTATTTGCT (site TATGGGTCTAG)”, 2.88. For “TATGTAACATGGACCGGTTTTCCCGGTAATCCGTATTTGCT (site AATGTAACTAG)” the value was 0.864; for “TATGTAACATGGACCGGTTTTCCCGGTAATCCGTATTTGCT (site CATGTAACTAG)”, 1.18.

As for “TATGTAACATGGACCGGTTTTCCCGGTAATCCGTATTTGCT (site GATGTAACTAG)”, the “recombinant UMI read abundance (log10)” value is 1.67.

Consider “TATGTAACATGGACCGGTTTTCCCGGTAATCCGTATTTGCT (site TATGTAACTAG)”, for which the “recombinant UMI read abundance (log10)” value was determined as 2.06. Then “TATGTATCATGGACCGGTTTTCCCGGTAATCCGTATTTGCC (site TATGTATCTGG)”, with 2.66; and “TATGTGGCATGGACCGGTTTTCCCGGTAATCCGTATTTGAA (site TATGTGGCTTT)”, with 0.784; and “TATGTGGCATGGACCGGTTTTCCCGGTAATCCGTATTTGTG (site TATATGGCTCA)”, with 0.00536. For “TATGTGGCATGGACCGGTTTTCCCGGTAATCCGTATTTGTG (site TATCTGGCTCA)” the value was 0.0111. For “TATGTGGCATGGACCGGTTTTCCCGGTAATCCGTATTTGTG (site TATGTGGCTCA)” the value was 0.00847; for “TATGTGGCATGGACCGGTTTTCCCGGTAATCCGTATTTGTG (site TATTTGGCTCA)”, 0.0197; for “TATTAACCATGGACCGGTTTTCCCGGTAATCCGTATTTGCC (site TATTAACCTGG)”, 0. For the sequence “TATTCAACATGGACCGGTTTTCCCGGTAATCCGTATTTGCC (site TATTCAACTGG)”, the “recombinant UMI read abundance (log10)” value is 0.527. On to “TATTCGGCATGGACCGGTTTTCCCGGTAATCCGTATTTGGT (site TATTCGGCTAC)”, for which the “recombinant UMI read abundance (log10)” value came out at 0. Then “TATTCTGCATGGACCGGTTTTCCCGGTAATCCGTATTTGGA (site TATTCTGCTTC)”, with 0.603; and “TATTTAGCATGGACCGGTTTTCCCGGTAATCCGTATTTGTG (site TATTTAGCTCA)”, with 0.31. Then “TATTTAGCATGGACCGGTTTTCCCGGTAATCCGTATTTGTG (site TATTTCGCTCA)”, with 0.026; and “TATTTAGCATGGACCGGTTTTCCCGGTAATCCGTATTTGTG (site TATTTGGCTCA)”, with 0.0112; and “TATTTAGCATGGACCGGTTTTCCCGGTAATCCGTATTTGTG (site TATTTTGCTCA)”, with 0.0238. Turning to “TATTTGGCATGGACCGGTTTTCCCGGTAATCCGTATTTGGG (site TATTTGGCTCA)”, the “recombinant UMI read abundance (log10)” value came to 0. For the sequence “TATTTGGCATGGACCGGTTTTCCCGGTAATCCGTATTTGGG (site TATTTGGCTCC)”, the “recombinant UMI read abundance (log10)” value came out at 0.0427. For “TATTTGGCATGGACCGGTTTTCCCGGTAATCCGTATTTGGG (site TATTTGGCTCG)” the value was 0.0185; for “TATTTGGCATGGACCGGTTTTCCCGGTAATCCGTATTTGGG (site TATTTGGCTCT)”, 0.0188. For “TCAAATTCATGGACCGGTTTTCCCGGTAATCCGTATTTGCC (site TCAAATTCTGG)” the value was 0.558. Consider “TCAAATTCATGGACCGGTTTTCCCGGTAATCCGTATTTGCC (site TCCAATTCTGG)”, for which the “recombinant UMI read abundance (log10)” value is 0. In the case of “TCAAATTCATGGACCGGTTTTCCCGGTAATCCGTATTTGCC (site TCGAATTCTGG)”, the “recombinant UMI read abundance (log10)” value was 0. For the sequence “TCAAATTCATGGACCGGTTTTCCCGGTAATCCGTATTTGCC (site TCTAATTCTGG)”, the “recombinant UMI read abundance (log10)” value is 0. Then “TCAACCCCATGGACCGGTTTTCCCGGTAATCCGTATTTGGT (site TCAACCCCTAC)”, with 0. For “TCAACGTCATGGACCGGTTTTCCCGGTAATCCGTATTTGCA (site TCAACGTCTTG)” the value was 0; for “TCAAGAACATGGACCGGTTTTCCCGGTAATCCGTATTTGGG (site TCAAGAACTCC)”, 0.301; for “TCACACACATGGACCGGTTTTCCCGGTAATCCGTATTTGAT (site TCACACACTAT)”, 1.33.

On to “TCACACACATGGACCGGTTTTCCCGGTAATCCGTATTTGTG (site TCACACACTCA)”, for which the “recombinant UMI read abundance (log10)” value was 0.198.

On to “TCACACTCATGGACCGGTTTTCCCGGTAATCCGTATTTGCA (site TCAAACTCTTG)”, for which the “recombinant UMI read abundance (log10)” value turned out to be 0. Turning to “TCACACTCATGGACCGGTTTTCCCGGTAATCCGTATTTGCA (site TCACACTCTTG)”, the “recombinant UMI read abundance (log10)” value turned out to be 2.68. For “TCACACTCATGGACCGGTTTTCCCGGTAATCCGTATTTGCA (site TCAGACTCTTG)” the value was 0; for “TCACACTCATGGACCGGTTTTCCCGGTAATCCGTATTTGCA (site TCATACTCTTG)”, 1.85; for “TCACGACCATGGACCGGTTTTCCCGGTAATCCGTATTTGTG (site TCACGACCTCA)”, 0.0189. For “TCACGGCCATGGACCGGTTTTCCCGGTAATCCGTATTTGGT (site TCACGGCCTAC)” the value was 0.00583; for “TCACTAACATGGACCGGTTTTCCCGGTAATCCGTATTTGGA (site TCACTAACTTC)”, 0.957.

In the case of “TCACTATCATGGACCGGTTTTCCCGGTAATCCGTATTTGCA (site ACAGTATCTTG)”, the “recombinant UMI read abundance (log10)” value was determined as 0. Then “TCACTATCATGGACCGGTTTTCCCGGTAATCCGTATTTGCA (site TCACTATCTTG)”, with 2.41.
